# Data from patent US20260345609A1, “METHODS FOR PROMOTING PERSISTENCE OF CELL THERAPY” (Legend Biotech Ireland Limited, priority 2022, published 2026).
# Experiments:
# [1] = system: host PBMC cells (HLA-A2+); experiment: Effect of combination of fludarabine, cyclophosphamide and MTX on host immune cells (HLA-A2+) in peripheral blood; assay type: in vivo, NCG mice; human host cells; conditions: day 13
# Source text: pLVX-Puro vector purchased from Clontech was subjected to the digestion reaction of ClaI and EcoRI restriction enzymes. The CMV promoter was replaced with the human EF1α promoter (GenBank: J04617.1) to obtain the pLVX-hEF1α vector. The fusion gene sequence of SIV Nef_M116-P2A-DHFR L22F/F31S-IRES-CD8α SP-anti-BCMA antibody-CD8α Hinge-CD8αTM-4-1BB-ITAM010, hereinafter referred to as “LUCAR-BCMA” (SEQ ID NO: 6) was cloned into the expression plasmid pLVX-hEF1α to form the LUCAR-BCMA expression plasmid named as M1588. The anti-BCMA antibody contained herein has been disclosed in PCT/CN2020/136570. With reference to the virus vector production and primary T transduction in Example 1, LUCAR-BCMA cells were prepared.
# Severely immunodeficient NCG mice were used for in vivo efficacy evaluation. The specific embodiment is as follows: at day-5.5 mice were intravenously inoculated with 20×10^6 PBMC cells (HLA-A2+) to construct host immune cells, and at day0 the mice were intravenously inoculated with 3×10^6 LUCAR-BCMA cells (HLA-A2−) as transplanted cells. The modeled mice were then treated with the following different combination of fludarabine, cyclophosphamide, and MTX to evaluate the inhibitory effect of the combination regimen on the host's immune system. “/” in Table 2 means no drug was administrated. The dose of fludarabine in each experimental group was 0.1623 mg/mice, the dose of cyclophosphamide was 1.623 mg/mice and the dose of MTX was 15.15 mg/kg (G3 and G4) or 75.45 mg/kg (G5 and G6). At day 13, the end point of the experiment, the peripheral blood white blood cells (WBC) of mice were measured. The peripheral blood cells of mice were resuspended in DPBS, and then 1 μL of FITC anti human CD45 (Biolegend, 304038) and 1 μL of PE anti human HLA-A2 (Biolegend, 343306) were added into the cell resuspension and incubated at 4° C. for 30 min. […] The proliferation of host PBMC cells in the peripheral blood of mice was evaluated, which reflected the effect of different combinations of drugs on host immunity in vivo.
# LUCAR-20SD cells = experiment: In vitro mixed lymphoid (MLR) model with LUCAR-20SD cells, UnT and Raji cells: graft LUCAR-20SD cells; assay type: cell-based, human; conditions: 0.05 μM, 1 μM, 2 μM MTX
# Description: To evaluate the ability of LUCAR-20SD cells to tolerate allogeneic T cell rejection, an in vitro mixed lymphoid (MLR) model was established.
# Using the T cells from a random healthy donor (B donor), LUCAR-20SD cells were prepared following the method in Example 1, as the graft cells. Un-transduced T cells (UnT) from another random healthy donor (Adonor) were also prepared, as the host cells.
# The cell density of CD20 positive cells (lymphoma cell lines Raji, ATCC, CCL-86) was adjusted to 1×10^6 cells/mL. Raji cells were treated with 20 μg/mL mitomycin at 37° C. for 3 h, washed three times with 10 mL DPBS, and were resuspended in the culture medium. 20×10^6 untransduced T cells (UnT, T cell donor A), 1×10^6 LUCAR-20SD cells (T cell donor B), and 5×10^6 treated lymphoma cells Raji were mixed and cultured in the medium. The cell mixture was divided into 4 groups, and 0 μM MTX, 0.05 μM MTX, 1 μM MTX, or 2 μM MTX was added, respectively. […] According to the formula: fold change of cell number (UnT)=[cell number counted by AOPI×(CAR-CD5+%)]/20, fold change of cell number (LUCAR-20SD cells)=[cell number counted by AOPI×(CAR+CD5+%)]/1, the cell proliferation curves of UnT and LUCAR-20SD cells were plotted.
# [2] = system: human gastric cancer cells NUGC4; experiment: In vivo efficacy in subcutaneous NUGC4 gastric cancer xenograft model, tumor volume; parameters: species or system NCG immunodeficient mice; human tumor cells; conditions: G5, 22.635 mg/kg MTX alone i.p., day5 to day35, p>0.05
# Source text: Refer to Example 1, the fusion gene sequence of SIV Nef M116-IRES-CD8α SP Claudin18.2 VHH-CD8α Hinge-CD8α TM-4-1BB-ITAM010 (SEQ ID NO: 5) was cloned into the expression plasmid pLVX-hEF1α to form the M1645 expression plasmid. The anti-Claudin18.2 VHH, as well as the antigen binding domain of CAR, have been disclosed in PCT/CN2020/139143. TGB23-6-IRES-DHFR L22F/F31S (SEQ ID NO: 7) was cloned into the expression plasmid pLVX-hEF1α to form the M1647 expression plasmid. The fusion protein of TGB23-6 is a signal converter, and has been described in PCT/CN2022/087016. To obtain LUCAR-GC cells, M1645 and M1647 were transduced into T cells. The production of Virus vector and the transduction of primary T were completed with reference to Example 1.
# Severely immunodeficient NCG mice were used for in vivo efficacy evaluation. On day −14 before treatment, NCG immunodeficient mice were inoculated subcutaneously with tumor cells (3×10^6 human gastric cancer cells NUGC4/mouse). […] During the experiment, animal status, survival, tumor volume and body weight were measured twice a week. […] The proportion of transplanted cells (hCD45+%/live) in the peripheral blood of mice was counted.
structure (smiles),measurement,setting,value
"CN(Cc1cnc2nc(N)nc(N)c2n1)c1ccc(C(=O)N[C@@H](CCC(=O)O)C(=O)O)cc1 [MTX, methotrexate]","inhibitory effect of MTX on the host immune cells, dose relation",[1]; 15.15 mg/kg (G3) vs 75.45 mg/kg (G5),dose-dependent
same,inhibitory effect on proliferation of host cells,[1]; FC regimen or MTX alone,the inhibitory effect was limited
same,number of host cells in the peripheral blood compared with G1 blank group,"[1]; G2: FC, G3: 15.15 mg/kg MTX, G5: 75.45 mg/kg MTX",lower than that of the G1 blank group
same,protective effect on heterologous LUCAR-20SD cells,LUCAR-20SD cells,good protective effect on heterologous LUCAR-20SD cells
same,tumor volume compared with control G1 and G2,[2],not significantly different
